From ChEMBL document CHEMBL2311407, “Design and synthesis of diazatricyclodecane agonists of the G-protein-coupled receptor 119” (J Med Chem, 2013) come the findings set out here.

Each structure is given as a SMILES string. ≈ marks a conversion by molar mass, not a printed value. Bounds are passed on as bounds.

A short description of series [1]: Apparent intrinsic clearance in human liver microsomes. Type of series: ADME, Microsome. To be noted: read-out: CLH(app). For orientation: Microsomes from liver hold many membrane-bound enzymes, among them those of drug oxidation.
Series [2] is described as follows: Aqueous solubility of the compound in PBS at pH 1.2. Type of series: physicochemical.
Series [3] can be described thus: Aqueous solubility of the compound in PBS at pH 7.4. Format: physicochemical.

With `Cc1ncccc1Oc1ncnc(N2C3CC4CC2CC(C3)N4C(=O)OC2(C)CCC2)c1C`, the CLint scaled in series [1] is above 30 mL/min/kg.

Broadly, the solubility is how much of the substance goes into solution per volume. Turning to `Cc1ncccc1Oc1ncnc(N2C3CC4CC2CC(C3)N4C(=O)OC2(C)CC2)c1C`, the solubility in series [2] came out at 6800 µg/mL (≈ 15.6 mM); in series [3] it was 0.5 µg/mL (≈ 0.00115 mM).

As for `CC[C@@H](C)OC(=O)N1C2CC3CC1CC(C2)N3c1ncnc(Oc2cccnc2C)c1C`, in series [1], the CLint scaled is above 30 mL/min/kg.
